{
  "source": "patent US9862679B2",
  "about": "“Potent and selective inhibitors of monoamine transporters; method of making; and use thereof” (priority 2013, dated 2018)",
  "key": {"[1]": {"experiment": "Phase I metabolic stability in mouse liver microsomes (NADPH)", "assay_type": "in vitro ADME", "conditions": "10 μM", "experimental": "(§1) Phase I and phase II metabolic stability assay for was conducted in mouse liver microsomes. For phase I metabolism, the reaction was carried out with 100 mM potassium phosphate buffer, pH 7.4, in the presence of NADPH regenerating system (1.3 mM NADPH, 3.3 mM glucose 6-phosphate, 3.3 mM MgCl2, 0.4 U/mL glucose-6-phosphate dehydrogenase, 50 μM sodium citrate). Reactions in duplicate were initiated by addition of the liver microsomes to the incubation mixture (compound final concentration was 10 μM; 0.5 mg/mL microsomes). For phase II glucuronidation reaction compound was added to TRIS-HCl buffer (50 mM, pH 7.5) with microsomes (0.5 mg/mL), along with MgCl2 (8 mM), and alamethicin (25 μg/mL) and pre-incubated at 37° C. The reaction was initiated (in duplicate) with UDPGA at a final concentration of 2 mM. Negative controls in the absence NADPH and UDPGA were carried for both phase I and phase II metabolism respectively, to determine the specific cofactor free degradation. […] At predetermined times (0, 15, 30 and 60 min) aliquots of the mixture were removed and the reaction quenched by addition of two times the volume of ice cold acetonitrile spiked with the internal standard. Compound disappearance was monitored over time using a liquid chromatography and tandem mass spectrometry (LC/MS/MS) method.\n(§2) Compounds were separated on an Agilent 1290 UPLC system with a c18 column using a gradient run of 55:45-5:95 water:acetonitrile over 3.2 minutes and detected on an Agilent 6520 QTOF mass spectrometer."}, "[2]": {"experiment": "Plasma pharmacokinetics in mice, 10 mg/kg i.v. and p.o.", "experimental": "(§3) Plasma was harvested from blood by centrifugation. Additionally at two selected time points (i.e. 30 min and 2 h) brains were collected following both oral and IV dosing. Samples were extracted from plasma by a single one-step protein precipitation method (as described in bioanalysis section below). For brain tissue, whole brains were weighed and homogenized in two times the volume of acetonitrile, followed by vortexing and centrifugation. Once extracted, the samples were analyzed via LC/MS/MS (as described in bioanalysis section below). Non-compartmental-analysis module in WinNonlin™ (version 5.3) was used to assess pharmacokinetic parameters including maximal concentration (Cmax), time to Cmax (Tmax), area under the curve (AUClast), area extrapolated to infinity (AUC0-∞), terminal disposition rate constant (ke), and terminal half-life (t½).\n(§4) Briefly, plasma samples were thawed on ice prior to extraction. Samples (50 μL) were extracted in 300 μL acetonitrile containing 1000 nM losartan as internal standard. For brain, 50 μL of the supernatant from homogenized tissue was extracted with 100 μL acetonitrile containing 1000 nM losartan as internal standard. Extracts were centrifuged at 16000×g at 4° C. for 10 minutes. Supernatants were transferred to a new siliconized tube and dried under N2 at 45° C. for 30 min. Samples were reconstituted with 100 μL of 30% acetonitrile, vortexed and centrifuged. Supernatants (95 μL) were transferred to a 250 μL polypropylene autosampler vials sealed with a Teflon cap and a volume of 10 μL was injected onto the ultra-performance liquid chromatography (UPLC) instrument for quantitative analysis using a temperature-controlled autosampler operating at 10° C.\n(§5) The instrument was controlled by the Xcalibur software 2.3 (Thermo Scientific). Samples were introduced to the interface through Turbo Ion Spray with the temperature setting at 350° C.\n(§6) Chromatographic analysis was performed using an Accela™ ultra high-performance system consisting of an analytical pump, and an autosampler coupled with TSQ Vantage mass spectrometer (Thermo Fisher Scientific Inc., Waltham Mass.)."}, "Swiss Webster mice": {"system": "Swiss Webster mice", "experiment": "Mouse locomotor activity test", "conditions": "up to 30 mg/kg, versus cocaine"}, "[3]": {"experiment": "Negative control: mouse liver microsomes without cofactors", "assay_type": "in vitro ADME", "conditions": "for Metabolic stability, Negative Control (% remaining): microsomes without cofactors", "experimental": "as §1, §2"}, "[4]": {"experiment": "Phase II (glucuronidation, UDPGA) metabolic stability in mouse liver microsomes", "assay_type": "in vitro ADME", "experimental": "as §1, §2"}, "[5]": {"experiment": "Brain concentrations in mice after IV and PO dosing at 10 mg/kg", "conditions": "for concentration at 0.5 h / concentration at 2 h: male, CD1, mouse, in vivo, 10 mg/kg", "experimental": "as §3, §4, §5, §6"}, "[6]": {"experiment": "Metabolic stability in mouse plasma", "assay_type": "in vitro ADME", "conditions": "for Metabolic stability, Plasma (% remaining): mouse plasma, 10 μM", "experimental": "The metabolic stability was evaluated using mouse plasma and mouse liver microsomes."}, "[7]": {"conditions": "male, CD1, mouse, in vivo, iv, 10 mg/kg"}, "[8]": {"conditions": "male, CD1, mouse, in vivo, po, 10 mg/kg"}},
  "data": [
    {"compound": "Fc1ccc(C(SCCNCCCc2ccccc2)c2ccc(F)cc2)cc1", "note": "[Compound 4g, N-(2-((bis(4-fluorophenyl)methyl)thio)ethyl)-3-phenylpropan-1-amine]", "values": [
      {"measurement": "Metabolic stability, Phase I (% remaining)", "setting": "[1]; 0 min", "value": 100, "unit": "%"},
      {"measurement": "Metabolic stability, Phase I (% remaining)", "setting": "[1]; 30 min", "value": 95, "unit": "%"},
      {"measurement": "Metabolic stability, Phase I (% remaining)", "setting": "[1]; 60 min", "value": 77, "unit": "%"},
      {"measurement": "bioavailability", "setting": "[2]; male, CD1, mouse, in vivo, 10 mg/kg, F % (absolute bioavailability), mouse, 10 mg/kg P.O. versus I.V.", "value": "~10", "unit": "%"},
      {"measurement": "AUC(0-inf)", "setting": "[2]; [7]", "value": 2040, "unit": "µg·h/mL"},
      {"measurement": "AUC(0-t)", "setting": "[2]; [7]", "value": 1.96, "unit": "µg·h/mL"},
      {"measurement": "Tmax", "setting": "[2]; [7]", "value": 4.8, "unit": "min"},
      {"measurement": "AUC(0-inf)", "setting": "[2]; [8]", "value": 203, "unit": "µg·h/mL"},
      {"measurement": "AUC(0-t)", "setting": "[2]; [8]", "value": 0.155, "unit": "µg·h/mL"},
      {"measurement": "Tmax", "setting": "[2]; [8]", "value": 30, "unit": "min"},
      {"measurement": "Ke", "setting": "[2]; mouse plasma, 10 mg/kg I.V.", "value": 0.6952},
      {"measurement": "locomotor stimulation (ambulatory distance)", "setting": "Swiss Webster mice", "value": "does not produce locomotor stimulation"},
      {"measurement": "Metabolic stability, Negative Control (% remaining)", "setting": "[3]; 0 min", "value": 100, "unit": "%"},
      {"measurement": "Metabolic stability, Negative Control (% remaining)", "setting": "[3]; 15 min", "value": 104, "unit": "%"},
      {"measurement": "Metabolic stability, Negative Control (% remaining)", "setting": "[3]; 30 min", "value": 97, "unit": "%"},
      {"measurement": "Metabolic stability, Negative Control (% remaining)", "setting": "[3]; 60 min", "value": 119, "unit": "%"},
      {"measurement": "metabolism in microsomes without the cofactors", "setting": "[3]; mouse liver microsomes, no NADPH/UDPGA", "value": "No metabolism was observed"},
      {"measurement": "Metabolic stability, Phase II (% remaining)", "setting": "[4]; 0 min", "value": 100, "unit": "%"},
      {"measurement": "Metabolic stability, Phase II (% remaining)", "setting": "[4]; 15 min", "value": 90, "unit": "%"},
      {"measurement": "Metabolic stability, Phase II (% remaining)", "setting": "[4]; 30 min", "value": 77, "unit": "%"},
      {"measurement": "Metabolic stability, Phase II (% remaining)", "setting": "[4]; 60 min", "value": 50, "unit": "%"},
      {"measurement": "concentration at 0.5 h", "setting": "[5]; iv", "value": 4780, "unit": "ng/g"},
      {"measurement": "concentration at 2 h", "setting": "[5]; iv", "value": 14100, "unit": "ng/g"},
      {"measurement": "concentration at 0.5 h", "setting": "[5]; po", "value": 369, "unit": "ng/g"},
      {"measurement": "concentration at 2 h", "setting": "[5]; po", "value": 223, "unit": "ng/g"},
      {"measurement": "brain penetrability", "setting": "[5]; mouse, following both p.o. and i.v. dosing", "value": "excellent brain penetrability"},
      {"measurement": "Metabolic stability, Plasma (% remaining)", "setting": "[6]; 0 min", "value": 100, "unit": "%"},
      {"measurement": "Metabolic stability, Plasma (% remaining)", "setting": "[6]; 15 min", "value": 100, "unit": "%"},
      {"measurement": "Metabolic stability, Plasma (% remaining)", "setting": "[6]; 30 min", "value": 99, "unit": "%"},
      {"measurement": "Metabolic stability, Plasma (% remaining)", "setting": "[6]; 60 min", "value": 103, "unit": "%"},
      {"measurement": "stability in mouse plasma", "setting": "[6]; over a period of 60 minutes", "value": "stable"}
    ]},
    {"compound": "C[C@]12CC[C@H]3[C@@H](CCC4=CC(=O)CC[C@@]43C)[C@@H]1CC[C@@H]2O", "note": "[Testosterone, reference compound]", "values": [
      {"measurement": "Metabolic stability, Phase I (% remaining)", "setting": "[1]; 0 min", "value": 100, "unit": "%"},
      {"measurement": "Metabolic stability, Phase I (% remaining)", "setting": "[1]; 60 min", "value": 0, "unit": "%"}
    ]}
  ]
}
